Assay results published in patent US12558344B2, “Composition for preventing or treating brain-nervous system diseases comprising rita or derivatives thereof” (priority 2019, dated 2026).

Experiments:
[1] = tested on: C57BL/6 mouse subjected to chronic restraint stress; experiment: Y-Maze test, spatial memory in CRS mouse; format: in vivo; details: Y-Maze test 6 minutes (arm alteration), 10 mg/kg intraperitoneally, FIG. 4
Experimental: (§1) An 8-week-old male C57BL/6 mouse was subjected to chronic restraint stress (CRS) using a restrainer from 10 AM to 4 PM daily for 7 days. RITA (10 mg/kg) was intraperitoneally injected using a 1-ml syringe at 9:30 AM for 10 days from 3 days before the stress experience. Specifically, to measure anxiety-related behavior, an open field test was performed. The degree of anxiety was measured by observing a staying rate during a staying time in the middle in a square with a size of 40×40 cm^2 for 20 minutes. In addition, to measure spatial memory ability, a Y-Maze test was performed. The degree of spatial memory ability was measured by measuring the rate (arm alteration) entering each passage while freely moving in a Y-shaped maze space composed of three passages for 6 minutes.

[2] = tested on: hippocampal neural stem cells; experiment: Neural stem cell protection in chronic restraint stress (CRS) mouse, SOX2/Ki67 immunohistochemistry of hippocampus; format: in vivo; details: 10 mg/kg intraperitoneally for 10 days, CRS 7 days, FIG. 2
Experimental: An 8-week-old male C57BL/6 mouse was subjected to chronic restraint stress (CRS) using a restrainer from 10 AM to 4 PM daily for 7 days. RITA (10 mg/kg) was intraperitoneally injected using a 1-ml syringe at 9:30 AM for 10 days from 3 days before the stress experience. To confirm the number of hippocampal neural stem cells in the RITA-injected mouse, the control and the stress-experiencing mice were anesthetized by injecting the neuro-anesthetic Zoletil and the muscle anesthetic Rompun to isolate brain tissue. Afterward, the brain tissue was frozen with an optimal cutting temperature compound after fixing the brain with 4% paraformaldehyde (PFA). To perform immunohistochemistry, the frozen brain was cut in the coronal plane to a thickness of 40 μm, and then a neural stem cell indicator, SOX2, and a cell proliferation indicator, Ki67 protein, were labeled with Alexa488 or Alexa555 and stained. The number of fluorescence-expressing cells in the hippocampus of the stained brain was detected using a Confocal 780 microscope (Zeiss), and the result is shown in FIG. 2. As a control, oil, which is a medium in which RITA is dissolved, was injected.

[3] = tested on: C57BL/6 mouse subjected to chronic restraint stress; experiment: Open field test, anxiety-related behavior in CRS mouse; format: in vivo; details: open field test 20 minutes, 10 mg/kg intraperitoneally, FIG. 3
Experimental: as §1

[4] = tested on: adult hippocampal neural stem cells (HCN cells); experiment: Cell death assay (Hoechst 33342/PI) of stress hormone (CORT)-induced death of adult hippocampal neural stem cells; format: cell-based, rat; details: 50 nM RITA (3 h pre-treatment, then with 200 μM CORT), 48 hours, FIG. 1
Experimental: First, adult hippocampal neural stem cells (HCN cells; hereinafter, referred to as “HCN”) were isolated from an 8-week-old female Sprague-Dawley rat (SD rat). Afterward, the isolated hippocampal neural stem cells were incubated using a serum-free medium containing Dulbecco's modified Eagle's medium (DMEM)/F-12 to which N2 and basic fibroblast growth factor (bFGF; PeproTech) were added in a 37° C. incubator. The cells were subcultured every 3 or 4 days. The subcultured neural stem cells were put into a 96-well plate at 1.5×10^5 cells/ml, 50 nM RITA was treated together with 200 μM corticosterone (CORT), and cell death was confirmed after 48 hours. Before CORT treatment, 50 nM RITA was pre-treated for 3 hours and then treated again along with CORT. For cell death assay, the cells were stained with Hoechst 33342 (Invitrogen) and propidium iodide (PI; Sigma) and photographed by a fluorescence microscope (Axiovert 40 CFL; Carl Zeiss), and the percentage of cell death was calculated by the following cell death (%) equation. Cell death (%)=(the number of PI[red]−positive cells/the number of Hoechst [blue]−positive cells)×100

Q: With `OCc1ccc(-c2ccc(-c3ccc(CO)s3)o2)s1` [RITA, 2,5-bis[5-hydroxymethyl-2-thienyl] furan] as the compound, how does the “spatial memory disability caused by stress experience” value [1] read?
A: The value was “prevented”.

Q: And the “number of cells expressing Ki67 (cell proliferation indicator) decreased by stress” value [2]?
A: The value was “considerably increased compared to the control”.

Q: What about the “number of cells expressing SOX2 (stem cell indicator) decreased by stress” value [2] of the same compound?
A: Its value is “considerably increased compared to the control”.

Q: And the “anxiety disorder-related behavior caused by stress experience” value [3]?
A: Its value is “prevented”.

Q: What about the “death of neural stem cells caused by a stress hormone” value [4] of the same compound?
A: Its value is “inhibits the death of neural stem cells”.
